Test results taken from patent US20250222009A1, “DINUCLEAR GOLD(I) COMPLEXES FOR TREATING CANCER” (KING FAHD UNIVERSITY OF PETROLEUM AND MINERALS, priority 2024, published 2025).
pIC50: −log10 of the molar value.

Key:
[1] = system: A2780cis (cisplatin-resistant clone of A2780); assay: MTT cytotoxicity assay, A2780cis; type: cell-based, human; settings: for Fold resistance (A2780cis/A2780): IC50 A2780cis/IC50 A2780; for pIC50: MTT, 72 h, mean, SD in next cell
Protocol: (§1) The human epithelial ovarian cancer A2780 cell line and its cisplatin-resistant clone A2780cis were obtained from Sigma-Aldrich (Milano, Italy). A2780cis cells were continuously exposed to 1 μM cisplatin to maintain cisplatin resistance. A549 cells (Human non-small cell lung cancer), MCF7 (metastatic breast cancer), PC3 (highly aggressive metastatic prostate cancer), and MG63 (osteosarcoma) were obtained from the American Type Culture Collection (ATCC). Cells were authenticated in laboratory using the PowerPlex 16 HS System. A2780, A2780cis, and PC3 cells were cultured in RPMI-1640 medium; MG63 and MCF7 cells were cultured in DMEM, and A549 cells were cultured in F12 NUT-MIX. The culture medium contained about 10% fetal bovine serum (FBS) (Gibco, Thermo Fisher Scientific, Monza, Italy), about 1% (v/v) of penicillin (10,000 units/mL)-streptomycin (10 mg/mL), and about 1% (v/v) L-glutamine (200 mM) (all from Sigma-Aldrich). Cells were cultured at 37° C. in a 5% CO2, fully humidified atmosphere.
(§2) 2.5×10^3 (PC3, MG63, MCF7) or 4.0×10^3 (A2780, A2780cis, A549) cells were seeded in 96-well microplates in 100 μL culture medium. Cells, allowed to adhere for 24 h, were then treated in triplicate with increasing concentrations of gold compounds. Cisplatin was included as a reference drug. Cell viability was evaluated using 3-(4,5-dimethylthiazol-2-yl)-2,5-diphenyltetrazolium bromide (MTT) assay (Sigma-Aldrich) after 72 h of treatment. Half maximal inhibitory concentrations (IC50), IC25, and IC75 were calculated using the CalcuSyn software version 2 (Biosoft, Ferguson, MO, USA) (See: Chou, T. C.; Talalay, P. Quantitative Analysis of Dose-Effect Relationships: The Combined Effects of Multiple Drugs or Enzyme Inhibitors. Adv. Enzyme Regul. 1984, 22, 27-55, which is incorporated herein by reference in its entirety). Fold resistance was calculated as the ratio of the IC50 of the A2780cis to that of the parental cell line A2780. Alternatively, cell viability was assayed by crystal violet staining (See: Feoktistova, M.; Geserick, P.; Leverkus, M. Crystal Violet Assay for Determining Viability of Cultured Cells. Cold Spring Harb Protoc 2016, 2016, pdb.prot087379, which is incorporated herein by reference in its entirety). Alternatively, after drug treatment, the culture Medium was removed, cells washed, fixed, and stained, and the Crystal Violet solution lasted 20 minutes (See: Sulaiman, A. A. A.; Casagrande, N.; Borghese, C.; Corona, G.; Isab, A. A.; Ahmad, S.; Aldinucci, D.; Altaf M. Design, Synthesis, and Preclinical Activity in Ovarian Cancer Models of New Phosphanegold(I)—N-Heterocyclic Carbene Complexes. J Med Chem 2022, 65, 14424-14440, which is incorporated herein by reference in its entirety).

[2] = system: A2780 ovarian cancer cells; assay: MTT cytotoxicity assay, A2780; type: cell-based, human; settings: 72 h, mean (SD)
Protocol: as §1, §2

A549-MCTSs = assay: 3D-A549-MCTS viability (PrestoBlue); type: cell-based, human
Protocol: To obtain multiple spheroids, 10.0×10^4 A549 cells were seeded in non-adherent conditions on poly-HEMA coated 96 wells (final volume, 200 μL) for four days. After drug treatment (72 h), the cell viability was determined using PrestoBlue Cell Viability Reagent (Thermo Fisher Scientific, Frederick, MD, USA) (See: Casagrande, N.; Celegato, M.; Borghese, C.; Mongiat, M.; Colombatti, A.; Aldinucci, D. Preclinical Activity of the Liposomal Cisplatin Lipoplatin in Ovarian Cancer. Clin Cancer Res 2014, 20, 5496-5506, which is incorporated herein by reference in its entirety).
3D-MCTSs are a model for in vitro drug testing (See: Zanoni, M.; Piccinini, F.; Arienti, C.; Zamagni, A.; Santi, S.; Polico, R.; Bevilacqua, A.; Tesei, A. 3D Tumor Spheroid Models for in Vitro Therapeutic Screening: A Systematic Approach to Enhance the Biological Relevance of Data Obtained. Sci Rep 2016, 6, 19103, which is incorporated herein by reference in its entirety) and to test drug tissue penetration. Thus, the effects of complex 3 in A549-MCTSs were determined by cultivating tumor cells in non-adherent conditions on poly-HEMA coated wells. […] Representative micro-photographs of A549-MCTSs treated with complex 3 (0.3-5 μM) and with cisplatin (15-250 μM) are shown in FIG. 9C.

MCF-7 (breast cancer) = assay: MTT cytotoxicity assay, MCF-7; type: cell-based; settings: 72 h, mean, SD in next cell
Protocol: as §1, §2

A549 (lung cancer cells) = assay: MTT cytotoxicity assay, A549; type: cell-based, human; settings: 72 h, mean (SD)
Protocol: as §1, §2

[3] = system: PC3 (androgen-resistant prostate cancer); assay: MTT cytotoxicity assay, PC3; type: cell-based; settings: 72 h, mean (SD)
Protocol: as §1, §2

MG-63 (osteosarcoma) = assay: MTT cytotoxicity assay, MG-63; type: cell-based; settings: 72 h, mean, SD in next cell
Protocol: as §1
2.5×10^3 (PC3, MG63, MCF7) or 4.0×10^3 (A2780, A2780cis, A549) cells were seeded in 96-well microplates in 100 μL culture medium. Cells, allowed to adhere for 24 h, were then treated in triplicate with increasing concentrations of gold compounds. Cisplatin was included as a reference drug. Cell viability was evaluated using 3-(4,5-dimethylthiazol-2-yl)-2,5-diphenyltetrazolium bromide (MTT) assay (Sigma-Aldrich) after 72 h of treatment. Half maximal inhibitory concentrations (IC50), IC25, and IC75 were calculated using the CalcuSyn software version 2 (Biosoft, Ferguson, MO, USA) (See: Chou, T. C.; Talalay, P. Quantitative Analysis of Dose-Effect Relationships: The Combined Effects of Multiple Drugs or Enzyme Inhibitors. Adv. Enzyme Regul. 1984, 22, 27-55, which is incorporated herein by reference in its entirety). Fold resistance was calculated as the ratio of the IC50 of the A2780cis to that of the parental cell line A2780. […]

[4] = system: A2780cis (cisplatin-resistant clone of A2780); settings: from J Med Chem 2022, 65, 14424; cited from earlier work
[5] = system: A2780 ovarian cancer cells; settings: from J Med Chem 2022, 65, 14424; cited from earlier work

| Compound | Fold resistance (A2780cis/A2780) [1] | pIC50 [1] | pIC50 [2] | pIC50 (A549-MCTSs; 72 h, PrestoBlue, poly-HEMA coated wells) | IC50 fold higher than complex 3 in A549-MCTSs (A549-MCTSs; cisplatin vs complex 3) [fold] | pIC50 (MCF-7 (breast cancer)) | pIC50 (A549 (lung cancer cells)) | pIC50 (A549 (lung cancer cells); listed as cisplatin) | pIC50 [3] | pIC50 ([3]; listed as cisplatin) | pIC50 (MG-63 (osteosarcoma)) | anti-proliferative activity in A2780cis cells (comparison) [4] | anti-proliferative activity in A2780 cells (comparison) [5] |
| --- | --- | --- | --- | --- | --- | --- | --- | --- | --- | --- | --- | --- | --- |
| N.N.[Cl][Pt][Cl] [Cisplatin, reference compound] | 6.93 | 4.98 | 5.82 | 4.36 | 46 | 4.65 | 5.21 | 5.21 | 5.48 | 5.48 |  |  |  |
| CC(C)c1cccc(C(C)C)c1-n1ccn(-c2c(C(C)C)cccc2C(C)C)[c]1=[Au-][P+](CC[P+]([Au-]=[c]1n(-c2c(C(C)C)cccc2C(C)C)ccn1-c1c(C(C)C)cccc1C(C)C)(c1ccccc1)c1ccccc1)(c1ccccc1)c1ccccc1 [Complex 1, [(Au(IPr))2(C26H24P2)](PF6)2] | 1.18 | 6.48 | 6.55 |  |  | 6.77 | 6.66 |  | 6.55 |  | 6.51 |  |  |
| CC(C)c1cccc(C(C)C)c1-n1ccn(-c2c(C(C)C)cccc2C(C)C)[c]1=[Au-][P+](CCC[P+]([Au-]=[c]1n(-c2c(C(C)C)cccc2C(C)C)ccn1-c1c(C(C)C)cccc1C(C)C)(c1ccccc1)c1ccccc1)(c1ccccc1)c1ccccc1 [Complex 2, [(Au(IPr))2(C27H26P2)](PF6)2] | 1.61 | 6.35 | 6.55 |  |  | 6.55 | 6.59 |  | 6.60 |  | 6.38 |  |  |
| CC(C)c1cccc(C(C)C)c1-n1cc[n+](-c2c(C(C)C)cccc2C(C)C)[c]1[Au-][P+](C1CCCCC1)(C1CCCCC1)C1CCCCC1.ClC(Cl)Cl.F[P-](F)(F)(F)(F)F [[Au(IPr)(Cy3P)]PF6·CHCl3] |  |  |  |  |  |  |  |  |  |  |  | more active | more active |
